We go through four compounds from DBAASP.

Values after ≈ are worked out from the molar mass of the structure shown. Values joined by “and” are separate entries in the source; they are usually repeats but may differ in a detail not shown here. Equal values may be shown once.

Among the test systems are Escherichia coli K-12; Shigella flexneri CP87; Escherichia coli BL21AI; Escherichia coli DC2; Escherichia coli D31; Spiroplasma citri R8A2; Aspergillus fumigatus; Bacillus megaterium MA; Micrococcus luteus A270; Candida albicans.
What all share (experiment): ≥ marks a high value that may be exact or a test limit, other limits are often not marked, values filed in µg/mL are converted to µM
Experiment [1] deals with Escherichia coli DSM 10233.
For experiment [2], the system named is Salmonella enterica subsp. enterica serovar Newport.
The test system of experiment [3] is Bacillus subtilis DSM 347.
In experiment [4] the test system is Pseudomonas syringae pv. tomato NCPPB 1106.
The test system of experiment [5] is Brenneria salicis NCPPB 2530.
Experiment [6] relates to Escherichia coli DSM 1103.
Experiment [7] has as its system Micrococcus luteus ATCC 10240.
In experiment [8] the test system is Klebsiella pneumoniae DSM 681.
For experiment [9], the system named is Escherichia coli NCTC 9001.
Experiment [10] relates to Salmonella enterica subsp. enterica serovar Typhimurium ATCC 700408.
In experiment [11] the test system is Clavibacter michiganensis subsp. insidiosus NCPPB 1109.
In experiment [12] the test system is Staphylococcus aureus USA 300.
Experiment [13] deals with Bacillus megaterium QMB 1551.
The subject of experiment [14] is Sinorhizobium meliloti ZB314.
Experiment [15] relates to Salmonella typhimurium ATCC 23565.
Experiment [16] relates to Klebsiella pneumoniae K6 ATCC 700603.
In experiment [17] the test system is Agrobacterium tumefaciens DSM 3129.
The test system of experiment [18] is Acholeplasma laidlawii A-EF22.
Experiment [19] concerns Alternaria brassicicola MUCL 20297.
In experiment [20] the test system is Fusarium oxysporum MUCL 909.
In experiment [21] the test system is Neurospora crassa CBS 327-54.
Experiment [22] has as its system Saccharomyces cerevisiae TGY 481 pJM600.
The test system of experiment [23] is Fusarium culmorum MUCL 30162.
In experiment [24] the test system is Fusarium haematococcum 160.2.2.
The test system of experiment [25] is Staphylococcus aureus ATCC 33591.
In experiment [26] the test system is Staphylococcus aureus 930918-3.

On to `CC[C@H](C)[C@H](NC(=O)[C@H](CCCNC(=N)N)NC(=O)[C@@H]1CCCN1C(=O)[C@H](Cc1cnc[nH]1)NC(=O)[C@@H]1CCCN1C(=O)[C@@H]1CCCN1C(=O)[C@H](CCCNC(=N)N)NC(=O)[C@@H]1CCCN1C(=O)[C@H](CCC(N)=O)NC(=O)[C@@H]1CCCN1C(=O)[C@@H](NC(=O)[C@H](Cc1ccc(O)cc1)NC(=O)[C@@H](NC(=O)[C@@H]1CCCN1C(=O)[C@H](CCCNC(=N)N)NC(=O)[C@H](CC(N)=O)NC(=O)[C@H](CC(N)=O)NC(=O)CN)C(C)C)[C@@H](C)CC)C(=O)O` [GNNRPVYIPQPRPPHPRI], for which the MIC (commonly the lowest concentration that inhibits growth of the organism) in [1] was 0.925 µM (≈ 1.95 µg/mL); in experiment [2] it was 0.0949 µM (≈ 0.2 µg/mL); with Escherichia coli K-12, no less than 100 µM; in experiment [3], no less than 59.3 µM; in experiment [4], 0.0949 µM (≈ 0.2 µg/mL); in [5] it was 0.0095 µM (≈ 0.02 µg/mL). In addition, the MIC in experiment [6] was determined as 0.925 µM (≈ 1.95 µg/mL); in [7] it was 14.8 µM (≈ 31.3 µg/mL); in experiment [8], 7.41 µM (≈ 15.6 µg/mL); in experiment [9], 0.0474 µM (≈ 0.0999 µg/mL); with Shigella flexneri CP87, 0.0474 µM (≈ 0.0999 µg/mL); in experiment [10], 0.949 µM (≈ 2 µg/mL). Also, the MIC is 23.7 µM (≈ 50 µg/mL) in experiment [11]; 0.465 µM (≈ 0.98 µg/mL) with Escherichia coli BL21AI; no less than 100 µM in [12]; no less than 71.1 µM in experiment [13]; 0.0474 µM (≈ 0.0999 µg/mL) in [14]; 1.85 µM (≈ 3.91 µg/mL) in the experiment with Escherichia coli DC2. The MIC against Escherichia coli D31 was 30.4 µM (≈ 64 µg/mL); in experiment [15], 0.0474 µM (≈ 0.0999 µg/mL); in [16], 30.4 µM (≈ 64 µg/mL); in [17] it was 0.0949 µM (≈ 0.2 µg/mL).

For `CC(C)C[C@H](NC(=O)[C@H](CC(C)C)NC(=O)[C@H](CCCCN)NC(=O)[C@H](CC(C)C)NC(=O)[C@H](CC(C)C)NC(=O)[C@H](CC(C)C)NC(=O)[C@H](CCCCN)NC(=O)[C@@H](N)CC(C)C)C(=O)N[C@@H](CCCCN)C(=O)O` [LKLLLKLLK], the MIC (against Spiroplasma citri R8A2; in [18]) was no less than 100 µM throughout.

As to `CC[C@H](C)[C@H](NC(=O)[C@H](CCCN=C(N)N)NC(=O)[C@H](CCC(=O)O)NC(=O)[C@H](CC(=O)O)NC(=O)CNC(=O)[C@H](CCCN=C(N)N)NC(=O)[C@H](CC(C)C)NC(=O)[C@@H](NC(=O)[C@H](CCC(=O)O)NC(=O)[C@H](Cc1ccccc1)NC(=O)[C@@H]1CSSC[C@H](NC(=O)[C@H](CCCCN)NC(=O)[C@H](CCSC)NC(=O)[C@@H](NC(=O)[C@H](CCC(=O)O)NC(=O)[C@@H](NC(=O)[C@H](CC(=O)O)NC(=O)CNC(=O)[C@H](CCCCN)NC(=O)[C@H](CC(N)=O)NC(=O)[C@H](CCSC)NC(=O)[C@@H]2CCCN2C(=O)[C@H](CO)NC(=O)[C@H](CC(N)=O)NC(=O)[C@@H](NC(=O)[C@@H]2CCCN2C(=O)[C@@H](N)CC(C)C)C(C)C)[C@@H](C)O)C(C)C)C(=O)N[C@@H]([C@@H](C)CC)C(=O)N[C@@H](C(C)C)C(=O)N[C@@H](CCC(=O)O)C(=O)N[C@@H](C(C)C)C(=O)N[C@@H]([C@@H](C)CC)C(=O)N[C@@H](CO)C(=O)N[C@@H](CC(=O)O)C(=O)N[C@@H]([C@@H](C)O)C(=O)N[C@@H](CC(C)C)C(=O)N[C@@H](CO)C(=O)N[C@@H](CCCCN)C(=O)N2CCC[C@H]2C(=O)N[C@@H](CO)C(=O)N2CCC[C@H]2C(=O)N[C@@H](CCSC)C(=O)N2CCC[C@H]2C(=O)N[C@@H](C(C)C)C(=O)N[C@@H](CO)C(=O)N[C@@H](CCCCN)C(=O)N[C@@H](CCC(=O)O)C(=O)N1)[C@@H](C)O)C(=O)N[C@@H](CC(C)C)C(=O)N[C@@H](CO)C(=O)N[C@H](C(=O)N[C@@H](CC(C)C)C(=O)N[C@@H](CCCN=C(N)N)C(=O)N[C@@H](Cc1cnc[nH]1)C(=O)N[C@@H](CCC(N)=O)C(=O)N[C@@H](CC(N)=O)C(=O)N[C@@H](CC(C)C)C(=O)N[C@@H](CC(C)C)C(=O)N[C@@H](CCCCN)C(=O)N[C@@H](CCC(=O)O)C(=O)N[C@@H](CC(C)C)C(=O)N[C@@H](CCC(N)=O)C(=O)N[C@@H](CC(=O)O)C(=O)N[C@@H](CC(C)C)C(=O)N[C@@H](C)C(=O)N[C@@H](CC(C)C)C(=O)N[C@@H](CCC(N)=O)C(=O)NCC(=O)N[C@@H](C)C(=O)N[C@@H](CCCCN)C(=O)N[C@@H](CCC(=O)O)C(=O)N[C@@H](CCCN=C(N)N)C(=O)N[C@H](C(=O)N[C@@H](Cc1cnc[nH]1)C(=O)N[C@@H](CCC(N)=O)C(=O)N[C@@H](CCC(N)=O)C(=O)O)[C@@H](C)O)[C@@H](C)CC` [LPVNSPMNKGDTEVMKCIVEVISDTLSKPSPMPVSKECFETLRGDERILSILRHQNLLKELQDLALQGAKERTHQQ], the MIC is 3 µM (≈ 25.8 µg/mL) in [19]; 5 µM (≈ 42.9 µg/mL) in the experiment on Aspergillus fumigatus; 10 µM (≈ 85.8 µg/mL) in experiment [20]; 0.2 µM (≈ 1.72 µg/mL) in the experiment with Bacillus megaterium MA; 2 µM (≈ 17.2 µg/mL) against Micrococcus luteus A270; 10 µM (≈ 85.8 µg/mL) in the experiment on Candida albicans. The MIC in experiment [21] amounted to 3 µM (≈ 25.8 µg/mL); in experiment [22], 10 µM (≈ 85.8 µg/mL); in [23], 1 µM (≈ 8.58 µg/mL); in experiment [24], 1 µM (≈ 8.58 µg/mL).

`CC[C@H](C)[C@H](NC(=O)[C@H](CCCCN)NC(=O)[C@H](CCCCN)NC(=O)[C@H](CC(C)C)NC(=O)[C@H](CCCCN)NC(=O)[C@H](CCC(=O)O)NC(=O)[C@H](CCCCN)NC(=O)[C@@H](NC(=O)[C@H](CCCCN)NC(=O)[C@H](CC(N)=O)NC(=O)[C@H](CCCN=C(N)N)NC(=O)[C@H](Cc1ccccc1)NC(=O)[C@H](CCCCN)NC(=O)[C@@H](N)CCCN=C(N)N)[C@@H](C)CC)C(=O)NCC(=O)O` [RKFRNKIKEKLKKIG]: the MIC in [25] was no less than 130 µM; in experiment [26], 0.95 µM and 1.17 µM.
